Measurements from patent publication US12350265B2, “Pharmaceutical composition for treating acute myeloid leukemia, containing FLT3 inhibitor and chemotherapeutic agents” (Hanmi Pharm. Co., Ltd., priority 2019, dated 2025).

Tested on: MV-4-11 cell line
Experiment: MV-4-11 cell line xenografted mouse model, tumor volume / tumor growth inhibition
Assay type: in vivo
Conditions: nude mice xenografted with MV-4-11; Compound A 3 mg/kg/day orally once a day, days 1 to 21
Experimental: In a mouse model xenografted with the MV-4-11 cell line, comparison or combination efficacy tests were conducted of the FLT3 inhibitor 5-Chloro-N-(3-cyclopropyl-5-(((3R,5S)-3,5-dimethylpiperazine-1-yl)methyl)phenyl)-4-(6-methyl-1H-indole-3-yl)pyrimidin-2-amine (hereinafter compound A); 4-amino-1-[(2R,3S,4S,5R)-3,4-dihydroxy-5-(hydroxymethyl)oxolane-2-yl]pyrimidin-2-one (hereafter cytarabine); and ((8S,10S)-8-acetyl-10-[(2S,4S,5S,6S)-4-amino-5-hydroxy-6-methyl-oxane-2-yl]oxy-6,8,11-trihydroxy-1-methoxy-9,10-dihydro-7H-tetracene-5,12-dione (hereafter daunorubicin).
The MV-4-11 cell line was purchased from the American Type Culture Collection (ATCC). To construct a xenografted mouse model using this MV-4-11 cell line, 5-week-old female CAnN·Cg-Foxn1nu/Crljbgi mice (hereinafter, Nude mice) were purchased from Charles River Laboratories Japan, Inc.
The MV-4-11 cell line was inoculated subcutaneously in the flank with 5×10^6 cells/[…]/mouse and allowed to grow. Mice having a tumor volume of 100 to 300 mm^3 (length×width^2×0.5) were selected 1 day before administration, the average tumor volume in each group was divided into 4 groups (5 animals/group) so that the average tumor volume was almost the same, and each dose was administered for a total period of 21 days. […]

Cc1ccc2c(-c3nc(Nc4cc(CN5C[C@@H](C)N[C@@H](C)C5)cc(C5CC5)c4)ncc3Cl)c[nH]c2c1 [compound A, 5-Chloro-N-(3-cyclopropyl-5-(((3R,5S)-3,5-dimethylpiperazine-1-yl)methyl)phenyl)-4-(6-methyl-1H-indole-3-yl)pyrimidin-2-amine]
Tumor growth inhibition (TGI): 34.7%
